The values below come from patent publication US11596620B2, “Formulations with reduced oxidation” (Genentech, Inc., priority 2013, dated 2023).

Structures are written as SMILES. “Also recorded” adds a separate entry of the source.

The nature of data set [1]: Photosensitivity screening assay (H2O2 by Amplex Ultra Red after light exposure). The class given is physicochemical. Particulars: for (H2O2 produced by Compound)/(H2O2 produced by L-Trp) / H2O2 produced compared to L-Trp, in words: 1 mM in 20 mM histidine acetate pH 5.5, four hours of light at 250 W/m^2; for H2O2 produced in comparison to L-Trp: 1 mM, four hours of light at 250 W/m^2, times more H2O2 than L-Trp. As for the experimental part: As a screening tool, antioxidant candidates were exposed to light for four hours at 250 W/m^2 and the resulting H2O2 formation was quantified by the Amplexassay. Specifically, antioxidants were prepared to 1 mM in 20 mM histidine acetate buffer at pH 5.5. The 1 mM antioxidant solutions were aliquoted into glass vials (2 mL/glass vial) and exposed to four hours of light at 250 W/m^2 in an Atlas SunTest CPS+ Xenon Test Instrument (Chicago, Ill.). Total UV dose was 90 watt-hours/square meter and total visible dose was 0.22 million lux hours over the 4-hour period. Control vials were wrapped in aluminum foil and treated similarly. The amount of hydrogen peroxide generated after exposure to light was measured using the Amplex® Ultra Red Assay (Invitrogen, Carlsbad, Calif.) following the manufacturer's recommended procedure. On addition of horseradish peroxidase (HRP), the dye reacted 1:1 stoichiometrically with H2O2, resulting in the production of fluorescent oxidation product resorufin. In this study, fluorescence readings were obtained using a Spectra Max M2 Micro-plate Reader (Molecular Devices, Sunnyvale, Calif.) with excitation and emission set at 560 nm and 590 nm, respectively. Final H2O2 concentrations were determined using a standard curve ranging from 0 μm to 20 μm.

Data set [2] in a line: Cyclic voltammetry (CV) screening assay, oxidation potential. Format: physicochemical. The protocol: The oxidation/reduction characteristics of the compounds were investigated. Several compounds, including L-Trp and derivatives, were evaluated for the protection of Trp oxidation in proteins using cyclic voltammetry (CV) and rank ordered based on their oxidation potentials (Table 2). Specifically, the candidate antioxidants were dissolved in deionized water and then added to a 0.2 M lithium perchlorate electrolyte solution. […] Solutions were scanned from −0.10 V to +1.50 V at a scan rate of either 100 or 500 mV/sec. The analytical cell was purged for four minutes with nitrogen before scanning of each antioxidant solution. The input was a linear scan of the potential of a working electrode, and the output was measurement of the resulting current. […] Redox reactions were characterized by sharp increases or decreases in current (peaks). The potential at which an oxidation reaction occurred was referred to as the anodic peak potential (or oxidation potential), and the potential at which a reduction occurred was referred to as is the cathodic peak (or reduction) potential.

The mark [3] stands for this setting: anodic peak potential, glassy carbon working electrode, 0.2M lithium perchlorate.
The mark [4] stands for this setting: cyclic voltammetry, 0.2 M lithium perchlorate.

As to `Nc1ccc2[nH]cc(CC(N)C(=O)O)c2c1` (racemic) [5-Amino-DL-Trp, 5-amino-DL-tryptophan], the “(H2O2 produced by Compound)/(H2O2 produced by L-Trp)” value in data set [1] worked out at 0.29. For the same molecule, the “Oxidation Potential” value in data set [2] (setting [3]) and in data set [2] (setting [4]) was 0.410 V vs Ag/AgCl in each case.

As to `COc1ccc2[nH]cc(CC(N)C(=O)O)c2c1` (racemic) [5-Methoxy-DL-Trp, 5-methoxy-DL-tryptophan], in data set [1], the “(H2O2 produced by Compound)/(H2O2 produced by L-Trp)” value came out at 1.05. Besides, the “Oxidation Potential” value in data set [2] (setting [3]) and in data set [2] (setting [4]) was 0.890 V vs Ag/AgCl each time.

On to `NC(Cc1c[nH]c2ccc([N+](=O)[O-])cc12)C(=O)O` (racemic) [5-nitro-DL-tryptophan], for which the “Oxidation Potential” value in data set [2] (setting [3]) is 1.055 V vs Ag/AgCl. In data set [2] (cyclic voltammetry), the “Oxidation potential relative to L-Trp, in words” value is reported as “higher oxidation potential than L-Trp”.

As for `Oc1cccc2[nH]ccc12` [4-Hydroxyindole], the “(H2O2 produced by Compound)/(H2O2 produced by L-Trp)” value in data set [1] is reported as 0.00.

With `N[C@@H](Cc1c[nH]c2ccc(F)cc12)C(=O)O` [5-Fluoro-L-Trp, 5-fluoro-L-tryptophan], the “(H2O2 produced by Compound)/(H2O2 produced by L-Trp)” value in data set [1] stood at 0.71. In addition, the “Oxidation Potential” value in data set [2] (setting [3]) turned out to be 0.965 V vs Ag/AgCl. Besides, the “Oxidation potential relative to L-Trp, in words” value in data set [2] (cyclic voltammetry) is given as “higher oxidation potential than L-Trp”.

Regarding `Nc1ccc(O)cc1C(=O)O` [5-Hydroxyanthranilic Acid], in data set [1], the “(H2O2 produced by Compound)/(H2O2 produced by L-Trp)” value is recorded as 0.44 and the “H2O2 produced compared to L-Trp, in words” value is on record as “half as much H2O2”.

Turning to `O=C(O)Cc1c[nH]c2ccc(O)cc12` [5-Hydroxyindole-3-Acetic Acid], the “(H2O2 produced by Compound)/(H2O2 produced by L-Trp)” value in data set [1] is 0.11. In addition, the “Oxidation Potential” value in data set [2] (setting [3]) worked out at 0.535 V vs Ag/AgCl.

`O=C(O)c1cc(O)ccc1O` [5-Hydroxysalicylic Acid]: in data set [1], the “(H2O2 produced by Compound)/(H2O2 produced by L-Trp)” value stood at 0.84 and the “H2O2 produced compared to L-Trp, in words” value is “behaved like L-Trp”.

Turning to `O=C(O)c1cc2cccc(O)c2[nH]1` [7-Hydroxyindole-2-Carboxylic Acid], in data set [1], the “(H2O2 produced by Compound)/(H2O2 produced by L-Trp)” value amounted to 0.15.

For the molecule `Nc1ccccc1C(=O)O` [Anthranilic Acid], in data set [1], the “(H2O2 produced by Compound)/(H2O2 produced by L-Trp)” value is reported as 2.50 and the “H2O2 produced compared to L-Trp, in words” value was “twice as much H2O2”.

Turning to `O=C(O)Cc1c[nH]c2ccccc12` [Indole-3-Acetic Acid], in data set [1], the “(H2O2 produced by Compound)/(H2O2 produced by L-Trp)” value stood at 2.40 and the “H2O2 produced compared to L-Trp, in words” value is on record as “twice as much H2O2; also recorded: two times more H2O2”. The “Oxidation Potential” value in data set [2] (setting [3]) was found to be 0.948 V vs Ag/AgCl. In data set [2] (cyclic voltammetry), the “Oxidation potential relative to L-Trp, in words” value was “higher oxidation potential than L-Trp”.

In the case of `c1ccc2[nH]ccc2c1` [Indole], in data set [1], the “(H2O2 produced by Compound)/(H2O2 produced by L-Trp)” value is given as 0.95 and the “H2O2 produced compared to L-Trp, in words” value is on record as “behaved similarly to L-Trp”. The “Oxidation potential relative to L-Trp, in words” value in data set [2] (cyclic voltammetry) is recorded as “significantly lower oxidation potential than L-Trp”.

For `Nc1ccccc1C(=O)C[C@H](N)C(=O)O` [L-Kynurenine, L-kynurenine], in data set [1], the “(H2O2 produced by Compound)/(H2O2 produced by L-Trp)” value was found to be 0.20 and the “H2O2 produced compared to L-Trp, in words” value is recorded as “about one fifth”. Besides, the “Oxidation Potential” value in data set [2] (setting [3]) stood at 1.040 V vs Ag/AgCl. Further, the “Oxidation potential relative to L-Trp, in words” value in data set [2] (cyclic voltammetry) is “higher oxidation potential than L-Trp”.

Take `COc1ccc2[nH]cc(CCNC(C)=O)c2c1` [Melatonin (N-Acetyl-5-Methoxytryptamine), N-Acetyl-5-Methoxytryptamine]: in data set [1], the “(H2O2 produced by Compound)/(H2O2 produced by L-Trp)” value is reported as 0.28 and the “H2O2 produced compared to L-Trp, in words” value is “less than a third”. In data set [2] (setting [3]), the “Oxidation Potential” value is 0.730 V vs Ag/AgCl.

For the molecule `Cc1ncc(CO)c(CO)c1O` [Pyridoxine], in data set [1], the “(H2O2 produced by Compound)/(H2O2 produced by L-Trp)” value was determined as 5.16 and the “H2O2 produced in comparison to L-Trp” value is 5 times.

In the case of `Cc1c(C)c2c(c(C)c1O)CCC(C)(C(=O)O)O2` (stereo not drawn) [Trolox], in data set [1], the “(H2O2 produced by Compound)/(H2O2 produced by L-Trp)” value worked out at 122.75 and the “H2O2 produced in comparison to L-Trp” value was determined as 123 times.
